Measurements reported in article PMC8508980, “Design, Synthesis and Anticancer Profile of New 4-(1H-benzo[d]imidazol-1-yl)pyrimidin-2-amine-Linked Sulfonamide Derivatives with V600EBRAF Inhibitory Effect” (International Journal of Molecular Sciences, 2021).
Where two headings read alike, the source gives them in different places.

Key:
V600EBRAF = target: T1, V600EBRAF (Homo sapiens, UniProt P15056, V600E); assay: Reaction Biology kinase HotSpot enzyme assay; format: biochemical; details: 1 µM ATP; for IC50: mean ± S.D. of two separate experiments; for % Inhibition at 1 µM over V600EBRAF / inhibition at 1 µM: single dose 1 µM, mean ± S.D. of two experiments; for inhibition at 1 µM: read-out: % Inhibition at 1 µM over V600EBRAF
T1 construct: purchased Reaction Biology Corp. (Kinase HotSpot service)
T1 sequence (P15056 whole entry V600E): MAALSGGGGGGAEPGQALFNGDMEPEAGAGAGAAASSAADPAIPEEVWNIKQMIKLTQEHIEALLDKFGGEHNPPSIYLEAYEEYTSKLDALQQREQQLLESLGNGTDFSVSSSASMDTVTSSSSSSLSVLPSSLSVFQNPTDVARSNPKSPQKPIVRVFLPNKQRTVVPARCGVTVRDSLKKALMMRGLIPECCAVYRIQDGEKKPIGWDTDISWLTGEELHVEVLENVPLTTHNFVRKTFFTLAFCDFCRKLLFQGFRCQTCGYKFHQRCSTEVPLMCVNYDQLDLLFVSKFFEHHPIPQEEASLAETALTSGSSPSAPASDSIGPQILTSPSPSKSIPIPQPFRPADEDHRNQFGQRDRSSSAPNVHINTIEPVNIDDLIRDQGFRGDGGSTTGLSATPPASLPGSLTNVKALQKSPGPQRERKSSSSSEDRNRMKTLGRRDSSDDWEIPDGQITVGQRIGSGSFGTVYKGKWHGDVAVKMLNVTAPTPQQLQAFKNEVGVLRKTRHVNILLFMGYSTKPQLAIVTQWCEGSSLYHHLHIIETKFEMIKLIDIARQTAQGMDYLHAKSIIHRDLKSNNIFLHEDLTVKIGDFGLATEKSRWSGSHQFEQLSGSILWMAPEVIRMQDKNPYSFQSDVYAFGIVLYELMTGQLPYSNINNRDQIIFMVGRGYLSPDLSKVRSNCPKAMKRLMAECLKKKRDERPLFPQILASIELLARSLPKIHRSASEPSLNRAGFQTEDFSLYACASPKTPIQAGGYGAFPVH
Description: Reaction Biology Corp. Kinase HotSpotTM service
(§1) Proﬁler Express for IC50 measurement. Assay protocol: In a ﬁnal reaction volume of 25 μL, kinase (5–10 mU) is incubated with 25 mM Tris pH 7.5, 0.02 mM EGTA, 0.66 mg/mL myelin basic protein, 10 mM magnesium acetate and [γ33P-ATP] (speciﬁc activity approx. 500 cpm/pmol, concentration as required). The reaction is initiated by the addition of the Mg-ATP mix. After incubation for 40 min at room temperature, the reaction is stopped by the addition of 5 μL of a 3% phosphoric acid solution. 10 μL of the reaction is then spotted onto a P30 ﬁltermat, and washed three times for 5 min in 75 mM phosphoric acid and once in methanol prior to drying and scintillation counting.

CRAF = CRAF (Homo sapiens, UniProt P04049); assay: Reaction Biology kinase HotSpot enzyme assay; format: biochemical; details: 1 µM ATP, mean ± S.D. of two separate experiments
Sequence of CRAF (P04049 whole entry): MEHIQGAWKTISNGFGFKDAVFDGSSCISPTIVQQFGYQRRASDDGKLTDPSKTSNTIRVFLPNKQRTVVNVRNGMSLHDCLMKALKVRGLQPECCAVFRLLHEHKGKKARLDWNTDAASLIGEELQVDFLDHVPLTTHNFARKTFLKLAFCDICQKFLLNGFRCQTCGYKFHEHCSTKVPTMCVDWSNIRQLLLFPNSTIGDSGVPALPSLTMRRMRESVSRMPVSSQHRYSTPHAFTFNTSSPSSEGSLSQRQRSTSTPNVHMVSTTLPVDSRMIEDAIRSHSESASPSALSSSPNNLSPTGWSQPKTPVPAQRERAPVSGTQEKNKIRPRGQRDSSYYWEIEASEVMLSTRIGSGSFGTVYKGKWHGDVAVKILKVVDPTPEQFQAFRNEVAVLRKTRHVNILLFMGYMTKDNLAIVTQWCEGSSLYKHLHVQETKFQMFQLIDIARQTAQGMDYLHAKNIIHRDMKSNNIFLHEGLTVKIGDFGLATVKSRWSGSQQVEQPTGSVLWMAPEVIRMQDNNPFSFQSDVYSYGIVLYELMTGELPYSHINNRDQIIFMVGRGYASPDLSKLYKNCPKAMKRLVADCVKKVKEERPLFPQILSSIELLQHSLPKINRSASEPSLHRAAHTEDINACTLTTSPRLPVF
Description: as §1, with “Reaction Biology Corp. Kinase HotSpotTM service http://www.reactionbiology.com was used for screening of compounds IC50 Proﬁler” for “Proﬁler”

HS 578T = assay: NCI 60 cell line screen; format: cell-based; details: Homo sapiens, Breast Cancer, read-out: Percent growth
Description: (§2) Anticancer profiling over a panel of 60 cancer cell lines was carried out at the National Cancer Institute (NCI), Bethesda, Maryland, USA, https://dtp.cancer.gov/discovery_development/nci-60/methodology.htm (Last visit 22 September 2021), using the standard procedure (detailed procedure is located in the Supplementary Information page 50 s).
(§3) NCI standard procedure for 60 cell lines assay
(§4) The human tumor cell lines of the cancer screening panel are grown in RPMI 1640 mediu m containing 5% fetal bovine serum and 2 mM L-glutamine. For a typical screening experiment, cells are inoculated into 96 well microtiter plates in 100 μL at plating densities ranging from 5,000 to 40,000 cells/well depending on the doubling time of individual cell lines. After cell inoculation, the microtiter plates are incubated at 37° C, 5 % CO2, 95 % air and 100 % relative humidity for 24 h prior to addition of experimental drugs.
(§5) After 24 h, two plates of each cell line are fixed in situ with TCA, to represent a measurement of the cell population for each cell line at the time of drug addition (Tz). Experimental drugs are solubilized in dimethyl sulfoxide at 400-fold the desired final maximum test concentration (10 µM) and stored frozen prior to use. At the time of drug addition, an aliquot of frozen concentrate is thawed and diluted to twice the desired final maximum test concentration with co mp lete medium containing 50 μg/ml gentamicin. Additional four, 10-fold or ½ log serial dilutions are made to provide a total of five drug concentrations plus control. Aliquots of 100 μl of these different drug dilutions are added to the appropriate microtiter wells already containing 100 μl of medium, resulting in the required final drug concentrations.
(§6) Following drug addition, the plates are incubated for an additional 48 h at 37°C, 5 % CO2, 95 % air, and 100 % relative humidity. For adherent cells, the assay is terminated by the addition of cold TCA. Cells are fixed in situ by the gentle addition of 50 μl of cold 50 % (w/v) TCA (final concentration, 10 % TCA) and incubated for 60 minutes at 4°C. The supernatant is discarded, and the plates are washed five times with tap water and air dried. Sulforhodamine B (SRB) solution (100 μl) at 0.4 % (w/v) in 1 % acetic acid is added to each well, and plates are incubated for 10 minutes at room temperature. After staining, unbound dye is removed by washing five times with 1 % acetic acid and the plates are air dried. Bound stain is subsequently solubilized with 10 mM trizma base, and the absorbance is read on an automated plate reader at a wavelength of 515 nm. For suspension cells, the methodology is the same except that the assay is terminated by fixing settled cells at the bottom of the wells by g ently adding 50 μl of 80 % TCA (final concentration, 16 % TCA). Using the seven absorbance measurements [time zero, (Tz), control growth, (C), and test growth in the presence of drug at the five concentration levels (Ti)], the percentage growth is calculated at each of the drug concentrations levels. Percentage growth inhibition is calculated as:
(§7) [(Ti-Tz)/(C-Tz)] x 100 for concentrations for which Ti>/=Tz
(§8) [(Ti-Tz)/Tz] x 100 for concentrations for which Ti<Tz.
(§9) Three dose response parameters are calculated for each experimental agent. Growth inhibition of […]
(§10) resulting in a 50% reduction in the net protein increase (as measured by SRB staining) in control cells during the drug incubation. The drug concentration resulting in total growth inhibition […]
(§11) (TGI) is calculated from Ti = Tz.

CCRF-CEM = assay: NCI 60 cell line screen; format: cell-based; details: Homo sapiens, Leukemia, read-out: Percent growth
Description: as §2, §3, §4, §5, §6, §7, §8, §9, §10, §11

IGROV1 = assay: NCI 60 cell line screen; format: cell-based; details: Homo sapiens, IGROV-1; IGROV1, Ovarian Cancer; read-out: Percent growth
Description: as §2, §3, §4, §5, §6, §7, §8, §9, §10, §11

UACC-62 = assay: NCI 60 cell line screen; format: cell-based; details: Homo sapiens; UACC-62, Melanoma; read-out: Percent growth
Description: as §2, §3, §4, §5, §6, §7, §8, §9, §10, §11

HL-60(TB) = assay: NCI 60 cell line screen; format: cell-based; details: Homo sapiens, Leukemia, read-out: Percent growth
Description: as §2, §3, §4, §5, §6, §7, §8, §9, §10, §11

SNB-19 = assay: NCI 60 cell line screen; format: cell-based; details: Homo sapiens; SNB-19, CNS-Cancer; read-out: Percent growth
Description: as §2, §3, §4, §5, §6, §7, §8, §9, §10, §11

OVCAR-8 = assay: NCI 60 cell line screen; format: cell-based; details: Homo sapiens; OVCAR-8, Ovarian Cancer; read-out: Percent growth
Description: as §2, §3, §4, §5, §6, §7, §8, §9, §10, §11

SK-MEL-28 = assay: NCI 60 cell line screen; format: cell-based; details: Homo sapiens; SK-MEL-28, Melanoma; read-out: Percent growth
Description: as §2, §3, §4, §5, §6, §7, §8, §9, §10, §11

786-0 = assay: NCI 60 cell line screen; format: cell-based; details: Homo sapiens; 786-0, Renal Cancer; read-out: Percent growth
Description: as §2, §3, §4, §5, §6, §7, §8, §9, §10, §11

TK-10 = assay: NCI 60 cell line screen; format: cell-based; details: Homo sapiens; TK-10, Renal Cancer; read-out: Percent growth
Description: as §2, §3, §4, §5, §6, §7, §8, §9, §10, §11

HOP-62 = assay: NCI 60 cell line screen; format: cell-based; details: Homo sapiens; HOP-62, Non-Small Cell Lung Cancer; read-out: Percent growth
Description: as §2, §3, §4, §5, §6, §7, §8, §9, §10, §11

SMILES | IC50 (V600EBRAF) | % Inhibition at 1 µM over V600EBRAF (V600EBRAF) | inhibition at 1 µM (V600EBRAF) | IC50 (CRAF; read-out: IC50 CRAF) | activity at 10 µM (HS 578T) | activity at 10 µM (CCRF-CEM) | activity at 10 µM (IGROV1) | activity at 10 µM (UACC-62) | activity at 10 µM (HL-60(TB)) | activity at 10 µM (SNB-19) | activity at 10 µM (OVCAR-8) | activity at 10 µM (SK-MEL-28) | activity at 10 µM (786-0) | activity at 10 µM (TK-10) | activity at 10 µM (HOP-62) | IC50 (CRAF; IC50 CRAF)
Cc1ccc(S(=O)(=O)NCCNc2nccc(-n3cnc4ccccc43)n2)cc1 [12g, N-(2-((4-(1H-benzo [d]imidazol-1-yl)pyrimidin-2-yl)amino)ethyl)-4-methyl benzenesulfonamide] | 790 ± 42 nM | 82.11 ± 0.32% | 82% | 1480 ± 99 nM | 64.2% | 69.5% | 75.2% | 53% | 91.2% | 86.8% | 79.8% | 94.4% | 85.4% | 83.7% | 69.6% | –
O=S(=O)(NCCCNc1nccc(-n2cnc3ccccc32)n1)c1ccccc1 [12h, N-(3-((4-(1H-benzo [d]imidazol-1-yl)pyrimidin-2-yl)amino)propyl)benzenesulfonamide] | 1120 ± 98 nM | 49.54 ± 0.61% | 50% | 2140 ± 78 nM | 93.7% | 88.1% | 107% | 85% | 104% | 103% | 84% | 105% | 98.8% | 103% | 96.9% | –
O=S(=O)(NCCCNc1nccc(-n2cnc3ccccc32)n1)c1ccc(F)cc1 [12i, N-(3-((4-(1H-benzo [d]imidazol-1-yl)pyrimidin-2-yl)amino)propyl)-4-fluorobenzenesulfonamide] | 530 ± 22 nM | 97.81 ± 0.82% | 98% | 980 ± 44 nM | 82.4% | 49% | 91.8% | 61.6% | 90.9% | 92.6% | 62.5% | 97.9% | 97.7% | 91.9% | 82.7% | –
O=S(=O)(NCCCNc1nccc(-n2cnc3ccccc32)n1)c1ccc(Cl)cc1 [12j, N-(3-((4-(1H-benzo [d]imidazol-1-yl)pyrimidin-2-yl)amino)propyl)-4-chloro benzenesulfonamide] | 790 ± 51 nM | 88.14 ± 0.19% | 88% | 1020 ± 77 nM | 105% | 91.7% | 114% | 81.5% | 108% | 104% | 90.8% | 108% | 103% | 104% | 101% | –
O=S(=O)(NCCCNc1nccc(-n2cnc3ccccc32)n1)c1ccc(Br)cc1 [12k, N-(3-((4-(1H-benzo [d]imidazol-1-yl)pyrimidin-2-yl)amino)propyl)-4-bromo benzenesulfonamide] | 810 ± 56 nM | 73.81 ± 0.75% | 74% | 990 ± 85 nM | 90% | 83% | 101% | 77.3% | 99.8% | 98.6% | 82.5% | 102% | 91.7% | 97.8% | 107% | –
O=S(=O)(NCCCNc1nccc(-n2cnc3ccccc32)n1)c1ccc(C(F)(F)F)cc1 [12l, N-(3-((4-(1H-benzo [d]imidazol-1-yl)pyrimidin-2-yl)amino)propyl)-4-(trifluoromethyl) benzenesulfonamide] | 490 ± 61 nM | 98.75 ± 0.58% | 99% | 840 ± 76 nM | 58.6% | 51.9% | 74.3% | 64.1% | 89% | 83.4% | 60% | 103% | 77.2% | 81.5% | 77.3% | –
COc1ccc(S(=O)(=O)NCCCNc2nccc(-n3cnc4ccccc43)n2)cc1 [12m, N-(3-((4-(1H-benzo [d]imidazol-1-yl)pyrimidin-2-yl)amino)propyl)-4-methoxy benzenesulfonamide] | 820 ± 48 nM | 51.26 ± 0.29% | 51% | 960 ± 79 nM | 84.8% | 91.4% | 91.5% | 76.3% | 110% | 100% | 93.7% | 106% | 95.9% | 103% | 94.8% | –
O=S(=O)(NCCCNc1nccc(-n2cnc3ccccc32)n1)c1cccc2ccccc12 [12n, N-(3-((4-(1H-benzo [d]imidazol-1-yl)pyrimidin-2-yl)amino)propyl)naphthalene-1-sulfonamide] | 1280 ± 144 nM | 41.27 ± 0.46% | 41% | – | 78.3% | 70.9% | 98.1% | 62% | 101% | 94.2% | 82.5% | 103% | 91.2% | 95.7% | 87.1% | 1780 ± 156 nM
